Measured values reported in PubChem BioAssay AID234 (DTP/NCI, 2004).
Values joined by “and” are separate entries in the source; they are usually repeats but may differ in a detail not shown here. Equal values may be shown once. Results filed as inconclusive are left out.

Test system: C3AKF1 mice, hamster liver cystadenocarcinoma s.c., tumor weight T/C
Assay: NCI In Vivo Anticancer Drug Screen. Data for tumor model Cystadenocarcinoma, Liver (No. 1) (Hamster) (subcutaneous) in C3AKF1 (CHKRF1) mice
Conditions: endpoint: mean tumor weight, schedule: Q01DX010 (ip), higher = larger tumour
Experimental: The antitumor activity of compounds was measured in mice bearing transplantable tumors. Survival or tumor size were measured and the results are expressed as the measurement made in the treated group (T) divided by the measurement made in the vehicle treated control group (C). The tumor model used in this assay is Cystadenocarcinoma, Liver (No. 1) (Hamster) (subcutaneous) in C3AKF1 (CHKRF1) mice

[1] = dose: 12.0 mg/kg/injection, vehicle: carboxymethylcellulose (CMC)
[2] = dose: 25.0 mg/kg/injection, vehicle: carboxymethylcellulose (CMC)
[3] = dose: 50.0 mg/kg/injection, vehicle: carboxymethylcellulose (CMC)
[4] = dose: 100.0 mg/kg/injection, vehicle: carboxymethylcellulose (CMC)
[5] = dose: 2.0 mg/kg/injection, vehicle: carboxymethylcellulose (CMC)
[6] = dose: 4.0 mg/kg/injection, vehicle: carboxymethylcellulose (CMC)
[7] = dose: 62.5 mg/kg/injection, vehicle: carboxymethylcellulose (CMC)
[8] = dose: 0.5 mg/kg/injection, vehicle: carboxymethylcellulose (CMC)
[9] = dose: 1.0 mg/kg/injection, vehicle: carboxymethylcellulose (CMC)
[10] = dose: 125.0 mg/kg/injection, vehicle: carboxymethylcellulose (CMC)
[11] = dose: 250.0 mg/kg/injection, vehicle: carboxymethylcellulose (CMC)
[12] = dose: 500.0 mg/kg/injection, vehicle: carboxymethylcellulose (CMC)
[13] = dose: 62.0 mg/kg/injection, vehicle: carboxymethylcellulose (CMC)
[14] = dose: 125.0 mg/kg/injection, vehicle: saline
[15] = dose: 250.0 mg/kg/injection, vehicle: saline
[16] = dose: 500.0 mg/kg/injection, vehicle: saline
[17] = dose: 15.0 mg/kg/injection, vehicle: carboxymethylcellulose (CMC)
[18] = dose: 30.0 mg/kg/injection, vehicle: carboxymethylcellulose (CMC)
[19] = dose: 60.0 mg/kg/injection, vehicle: carboxymethylcellulose (CMC)
[20] = dose: 20.0 mg/kg/injection, vehicle: carboxymethylcellulose (CMC)
[21] = dose: 1.25 mg/kg/injection, vehicle: carboxymethylcellulose (CMC)
[22] = dose: 2.5 mg/kg/injection, vehicle: carboxymethylcellulose (CMC)
[23] = dose: 5.0 mg/kg/injection, vehicle: carboxymethylcellulose (CMC)
[24] = dose: 400.0 mg/kg/injection, vehicle: carboxymethylcellulose (CMC)

CCCC(=O)NC1=C(N2CC2)C(=O)C(NC(=O)CCC)=C(N2CC2)C1=O
T/C (dose: 0.5 mg/kg/injection, vehicle: saline): 69 % of control and 86 % of control
T/C (dose: 0.75 mg/kg/injection, vehicle: saline): 47 % of control and 49 % of control
T/C (dose: 1.7 mg/kg/injection, vehicle: saline): 32 % of control and 48 % of control
T/C (dose: 2.6 mg/kg/injection, vehicle: saline): 14 % of control

Nc1nc(SCc2ccccc2Cl)c2[nH]cnc2n1
T/C [1]: 55 % of control
T/C [2]: 104 % of control
T/C [3]: 60 % of control and 84 % of control
T/C [4]: 100 % of control and 109 % of control

CSc1ncnc2c1ncn2C1CCCO1 (stereo not drawn)
T/C [1]: 70 % of control
T/C [2]: 69 % of control
T/C [3]: 72 % of control and 79 % of control
T/C [4]: 63 % of control and 76 % of control

CCCNC(=NC)c1ccc(NC(=O)c2ccc(C(=O)Nc3ccc(C(=NC)NCCC)cc3)cc2)cc1
T/C [1]: 99 % of control

N#CCSc1nc(N)nc2nc[nH]c12
T/C [5]: 87 % of control
T/C [6]: 102 % of control
T/C (dose: 8.0 mg/kg/injection, vehicle: carboxymethylcellulose (CMC)): 98 % of control
T/C (dose: 16.0 mg/kg/injection, vehicle: carboxymethylcellulose (CMC)): 99 % of control

CC(Cl)CN(Cc1cc(O)c(CN(CC(C)Cl)CC(C)Cl)cc1O)CC(C)Cl (stereo not drawn)
T/C [7]: 64 % of control

CCOc1ccc(Nc2ncnc3nc[nH]c23)cc1CN(CCCl)CCCl
T/C (dose: 1.0 mg/kg/injection, vehicle: saline): 78 % of control
T/C (dose: 2.0 mg/kg/injection, vehicle: saline): 99 % of control
T/C (dose: 4.0 mg/kg/injection, vehicle: saline): 98 % of control

COc1ccc(Nc2ccnc3cc(Cl)ccc23)cc1CN(CCCl)CCCl
T/C [8]: 95 % of control
T/C [9]: 91 % of control
T/C [5]: 93 % of control
T/C [6]: 70 % of control

COc1ccc2c(c1OC)C(=O)O[C@@H]2[C@H]1c2c(cc3c(c2OC)OCO3)CCN1C
T/C (dose: 50.0 mg/kg/injection, vehicle: saline): 102 % of control
T/C (dose: 100.0 mg/kg/injection, vehicle: saline): 88 % of control
T/C (dose: 200.0 mg/kg/injection, vehicle: saline): 92 % of control

CC(C)CCS(=O)(=O)OCCCCOS(=O)(=O)CCC(C)C
T/C [7]: 57 % of control
T/C [10]: 94 % of control
T/C [11]: 57 % of control
T/C [12]: 75 % of control

CCOC1=CCCCC1
T/C [13]: 94 % of control
T/C [10]: 106 % of control
T/C [14]: 48 % of control
T/C [15]: 95 % of control
T/C [16]: 99 % of control

O=C(O)CC(O)(CC(=O)O)C(=O)O.[Ga]
T/C (dose: 12.5 mg/kg/injection, vehicle: carboxymethylcellulose (CMC)): 123 % of control
T/C [2]: 96 % of control
T/C [3]: 79 % of control

CC(C)(c1ccccc1)c1ccc(O)cc1
T/C (dose: 37.5 mg/kg/injection, vehicle: carboxymethylcellulose (CMC)): 79 % of control

COc1cc(OC)c(OC)cc1/C=C\c1ccnc2ccccc12
T/C (dose: 63.0 mg/kg/injection, vehicle: carboxymethylcellulose (CMC)): 104 % of control
T/C [10]: 97 % of control
T/C [11]: 95 % of control

CCCCCCCCCCCCCS
T/C [2]: 100 % of control
T/C [3]: 69 % of control
T/C [4]: 90 % of control

CC(=O)Nc1ccc(NC(=O)c2ccc([As](O)O)cc2)cc1
T/C [17]: 60 % of control
T/C [18]: 77 % of control
T/C [19]: 92 % of control
T/C (dose: 120.0 mg/kg/injection, vehicle: carboxymethylcellulose (CMC)): 91 % of control

Cn1c(=O)c2[nH]c(CCCc3nc4c([nH]3)c(=O)n(C)c(=O)n4C)nc2n(C)c1=O
T/C [20]: 101 % of control
T/C (dose: 40.0 mg/kg/injection, vehicle: carboxymethylcellulose (CMC)): 68 % of control

CN(C)CCCN1c2ccccc2Sc2ccc(C(F)(F)F)cc21
T/C (dose: 12.0 mg/kg/injection, vehicle: saline): 84 % of control

O=C1NC2C(NC(=O)N2Cl)N1Cl (stereo not drawn)
T/C (dose: 20.0 mg/kg/injection, vehicle: saline): 101 % of control

CC1CN1C(=O)c1cc(C(=O)N2CC2C)cc(C(=O)N2CC2C)c1 (stereo not drawn)
T/C [17]: 83 % of control
T/C [18]: 84 % of control
T/C [19]: 118 % of control

COC(=S)SCN(CSC(=S)OC)c1ccccc1Cl
T/C [14]: 99 % of control
T/C [15]: 84 % of control
T/C [16]: 111 % of control

S=c1nc[nH]c2c1ncn2C1CCCO1 (stereo not drawn)
T/C [1]: 95 % of control
T/C [2]: 74 % of control
T/C [3]: 63 % of control

O=CC(O)CO (stereo not drawn)
T/C [10]: 120 % of control
T/C [11]: 108 % of control

CCOC(=O)Sc1ncnc2nc[nH]c12
T/C (dose: 14.0 mg/kg/injection, vehicle: carboxymethylcellulose (CMC)): 87 % of control
T/C (dose: 28.0 mg/kg/injection, vehicle: carboxymethylcellulose (CMC)): 84 % of control
T/C (dose: 56.0 mg/kg/injection, vehicle: carboxymethylcellulose (CMC)): 86 % of control

CN(C)c1ccc(/C=C\c2ccnc3ccccc23)cc1
T/C [21]: 98 % of control
T/C [22]: 95 % of control
T/C [23]: 96 % of control
T/C (dose: 10.0 mg/kg/injection, vehicle: carboxymethylcellulose (CMC)): 88 % of control and 89 % of control
T/C [20]: 67 % of control

N#C[C@@H]1C2C=CC(CC2)[C@H]1C#N
T/C [8]: 72 % of control
T/C [9]: 68 % of control
T/C [5]: 57 % of control

Nc1nc(SCc2ccccc2)c2ncn(C3CCCC3)c2n1
T/C [13]: 120 % of control
T/C [10]: 98 % of control
T/C [11]: 91 % of control
T/C [12]: 81 % of control

Nc1nc(N)c(N=Nc2ccccc2)c(=O)[nH]1
T/C [3]: 100 % of control
T/C [4]: 110 % of control
T/C (dose: 200.0 mg/kg/injection, vehicle: carboxymethylcellulose (CMC)): 93 % of control
T/C [24]: 100 % of control

Clc1ncnc2c1ncn2C1CCCO1 (stereo not drawn)
T/C [2]: 77 % of control
T/C [4]: 81 % of control and 93 % of control
T/C [24]: 52 % of control and 72 % of control
T/C (dose: 800.0 mg/kg/injection, vehicle: carboxymethylcellulose (CMC)): 113 % of control

NC(Cc1ccc(N(CCCl)CCCl)cc1)C(=O)O (stereo not drawn)
T/C [9]: 67 % of control
T/C [21]: 70 % of control
T/C [5]: 86 % of control
T/C [22]: 65 % of control
T/C [6]: 52 % of control
T/C [23]: 82 % of control

Cc1cc(N)c2cc(NC(=O)CCCCCCCCC(=O)Nc3ccc4nc(C)cc(N)c4c3)ccc2n1
T/C (dose: 31.0 mg/kg/injection, vehicle: carboxymethylcellulose (CMC)): 68 % of control
T/C [13]: 50 % of control
T/C [10]: 38 % of control

c1ccc(CSc2ncnc3nc[nH]c23)nc1
T/C (dose: 18.0 mg/kg/injection, vehicle: carboxymethylcellulose (CMC)): 85 % of control
T/C (dose: 37.0 mg/kg/injection, vehicle: carboxymethylcellulose (CMC)): 89 % of control
T/C (dose: 75.0 mg/kg/injection, vehicle: carboxymethylcellulose (CMC)): 90 % of control and 104 % of control
T/C (dose: 150.0 mg/kg/injection, vehicle: carboxymethylcellulose (CMC)): 86 % of control

CS(=O)(=O)OCCCOS(C)(=O)=O
T/C [17]: 53 % of control
T/C [18]: 79 % of control
T/C [19]: 53 % of control

O=C1N(Cl)C(=O)C(c2ccc(Cl)cc2)(c2ccc(Cl)cc2)N1Cl
T/C [17]: 67 % of control
T/C [18]: 85 % of control
T/C [19]: 61 % of control
